# Reference: the METLIN SMRT retention time set (Domingo-Almenara et al. 2019)
# Assay: gradient 5% acetonitrile 3 min, to 50% in 2 min, to 85% in 15 min, held 3 min, 100 µL/min
# Conditions: column: Zorbax Extend-C18 2.1 x 50 mm; eluents: water / acetonitrile, 0.1% formic acid
# Procedure, shortened: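 Retention times come from adduct peaks that were picked computationally and then checked by hand. The standards, pure and pooled in mixtures of ~100 molecules, were run on a Zorbax Extend-C18 column (2.1 × 50 mm, 1.8 μm) at 100 μL/min with water and acetonitrile, each with 0.1% formic acid. Detection was by quadrupole time-of-flight mass spectrometry in positive and negative ionization mode, with a dead volume of 40 μL and a dwell volume of 900 μL.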
row,RP-LC retention time,Structure (SMILES)
1,877 s,CC(C)Cc1nc2nccc(-c3ccccc3)n2n1
2,1230 s,Cc1ccc(-c2csc(NC(=O)Cc3csc(-c4ccccc4)n3)n2)cc1C
3,664 s,Cc1ccc(-n2nnnc2CN2CCN(C(=O)CSc3nnnn3C)CC2)cc1
4,914 s,Cc1sc(NC(=O)c2ccccc2Cl)nc1-c1ccc2c(c1)NC(=O)C(C)O2 (stereo unspecified)
5,1190 s,Cc1ccc(S(=O)(=O)c2cnc(N3CCN(c4cccc(Cl)c4)CC3)nc2N)cc1
6,1270 s,CCCCCn1c(=O)c2ccccc2n(Cc2nc(-c3ccc(F)cc3)no2)c1=O
7,616 s,Cc1noc(C)c1S(=O)(=O)NCCn1c(C)cnc1-c1ccccc1
8,710 s,N#Cc1ccccc1NC(=O)Cc1ccc2c(c1)OCO2
9,853 s,O=C(Nc1ccc2c(c1)OCCO2)N1CCC(OCCOCc2ccccc2)CC1
10,983 s,CC(C)c1ccc(NC(=O)C2CC(=O)N(CCc3c[nH]c4ccc(Cl)cc34)C2)cc1 (stereo unspecified)
11,606 s,CN1CCC(NC(=O)c2ccc(-c3nnc4ccc(NC(=O)C5CCC5)cn34)cc2)CC1
12,1250 s,O=C(COc1ccc(Cl)cc1Cl)Nc1nc(-c2ccc(F)cc2)cs1
13,647 s,CSc1nsc(NN)n1
14,898 s,COC(=O)c1ccccc1NC(=O)Cn1c(=O)c(CCC(=O)NC2CCCC2)nc2ccccc21
15,612 s,CN(C)c1ccc(CNC(=O)Cn2nc(C(=O)N3CCCC3)c3ccccc32)cc1
16,584 s,COc1ccccc1CC(=O)NC1CCN(Cc2c(C)noc2C)C1 (stereo unspecified)
17,963 s,Cn1ccc2cc(S(=O)(=O)N3CCC(C(=O)N4CCN(c5ccccc5)CC4)CC3)ccc21
18,898 s,CN(C)c1ccc(N2C=C(C(=O)N3CCCCC3)S(=O)(=O)c3ccccc32)cc1
19,841 s,Cc1ccc(C)c(C(=O)NC(c2ccccc2)c2nnc(N3CCCC3)o2)c1 (stereo unspecified)
20,834 s,CCn1cc(C(=O)Nc2ccccc2)c(S(=O)(=O)N2CCSCC2)n1

# Continued, compound first:
row,Structure (SMILES),RP-LC retention time
1,COc1ccc(NC(=O)Cn2c(N3CCCCC3)nc(C)cc2=O)cc1,661 s
2,CC(C)c1ccc(-n2ccnc(NC(=O)Nc3ccc(F)cc3)c2=O)cc1,1100 s
3,CCCc1nc(NCc2ccccn2)ncc1C(=O)O,571 s
4,CC1(C)CCCC2(C)C(OCCO)=CC(=O)C=C12 (stereo unspecified),794 s
5,Cn1cccc1-c1cc2n(n1)CCCN2C(=O)CCC(=O)N1CCc2ccccc2C1,809 s
6,CCc1cc(=O)n(CC(=O)Nc2cc(C)ccc2C)c(N2CCOCC2)n1,747 s
7,Cc1ccc(Cn2c(C)c3cnn(CC(=O)NCC4CCCO4)c(=O)c3c2C)cc1 (stereo unspecified),780 s
8,COc1ccc(S(=O)(=O)N2CCc3c(C(=O)NCCN(C)C)cccc32)cc1,635 s
9,Cc1ccc(C)c(NC(=O)CN2C(=O)C3CCCCN3c3ccc(S(=O)(=O)N(C)C)cc32)c1 (stereo unspecified),955 s
10,COc1cc2c(=O)c(C(=O)c3ccncc3)cn(CC(=O)Nc3ccc(F)cc3F)c2cc1Cl,711 s
11,Cc1ccc(-c2ccc(-n3nc(C)c(S(=O)(=O)Nc4ccccc4)c3C)nn2)cc1,1060 s
12,CCCNS(=O)(=O)c1cc(-c2c(CC)noc2NC(C)=O)ccc1OC,774 s
13,O=C(Nc1ccc2c(c1)CN(C(=O)Cn1c(=O)oc3ccccc31)CCO2)C1CC1,767 s
14,COc1ccc(Cl)cc1NC(=O)c1n[nH]c2ccccc12,1010 s
15,COc1cc(NC(=O)C2CCN(S(=O)(=O)c3cn(C(C)C)cn3)CC2)cc(OC)c1,751 s
16,CCOC(=O)C1CCCN(C(=O)c2cn(-c3cc(N4CCSCC4)ncn3)cn2)C1 (stereo unspecified),802 s
17,CC(C)(C)Sc1ccc2nn(CC(=O)Nc3ccccc3C(F)(F)F)c(=O)n2n1,816 s
18,NC(=O)C1CCN(C2CC(=O)N(c3ccc(Oc4ccccc4)cc3)C2=O)CC1 (stereo unspecified),662 s
19,COCCNC(=O)N1CC(c2nc(C3CC3)no2)C1,578 s
20,C=CCSc1nc(N)c2c(C)c(C(=O)O)sc2n1,708 s
21,COc1cccc(-c2c(C(=O)O)nnn2-c2ccc(OC)c(OC)c2)c1,715 s
22,c1ccc(-c2cccc(-c3ccccn3)n2)nc1,608 s
23,COc1ccc(Cl)cc1NS(=O)(=O)c1cc2n(c1)CCN(C(C)C)C2=O,803 s

row,Structure (SMILES),RP-LC retention time
1,CCc1ccc(NC(=O)CN2C(=O)C3CCCCN3c3ccc(S(=O)(=O)N(C)C)cc32)cc1 (stereo unspecified),817 s
2,CC(=O)N1CCc2sc(S(=O)(=O)N3CCN(c4ccccc4F)CC3)cc2C1,905 s
3,O=C(C1CCN(c2nc3ccsc3c(=O)n2-c2ccccc2)CC1)N1CCN(c2ccccc2)CC1,917 s
4,COc1ccc(-c2noc(C3(NC(=O)c4ccc(F)cc4)CCCCC3)n2)cc1,1150 s
5,Cc1cccc(-c2nc(C3CCN(S(=O)(=O)c4ccc5c(c4)CCCC5)CC3)no2)c1,1410 s
6,CC(=O)Nc1ccc(OC(=O)Oc2ccc(NC(C)=O)cc2)cc1,724 s
7,Cn1c(=O)c2cc(C(=O)Nc3ccccc3C(N)=O)cnc2n(-c2ccccc2)c1=O,788 s
8,CCOc1ccc(S(=O)(=O)N2CC=C(c3cn(C(C)C)c4ncccc34)CC2)cc1,645 s
9,CCNC(=O)c1cnn(-c2cc(-c3nc(C(C)C)no3)ccn2)c1C,858 s
10,Cc1nc(C)c(C(=O)N2CCCCCNC(=O)[C@@H]3CCC[C@@H]32)s1,638 s
11,O=C(NCc1ccco1)C1CCN(c2ccc(=O)n(-c3cccc(Cl)c3)n2)CC1,785 s
12,O=C(Cn1ccn2nc(-c3ccc(F)cc3)c(CO)c2c1=O)N1CCCc2ccccc21,899 s
13,Cc1cc(-c2cc(S(=O)(=O)NC3CCCCCC3)c(C)s2)n[nH]1,917 s
14,Cc1ccc(Nc2c(-c3ccc(C)cc3)nc3ccc(Cl)cn23)cc1,890 s
15,COc1ccc(NC(=O)C2CCCN(c3nccnc3Sc3ccccc3)C2)cc1Cl (stereo unspecified),1150 s
16,O=C(Cc1c[nH]c2ccccc12)NC1CCN(c2cc(-c3ccc(Cl)cc3)[nH]n2)C1 (stereo unspecified),743 s
17,Cn1cc(C(=O)NC2CCN(Cc3ccccc3)CC2)c2cccnc21,594 s
18,CC(C)NCC(O)COc1ccccc1-n1cccc1 (stereo unspecified),701 s
19,Cc1nc(N2CCN(Cc3ccccc3)CC2)nc2c1C(=O)CC(c1ccc(Cl)cc1)C2 (stereo unspecified),825 s
20,COc1ccc(-n2ncc3c(=O)n(Cc4nc(-c5ccc(C)cc5)no4)cnc32)cc1,1030 s
21,CN(C(=O)Cn1cnc2c(-c3ccc(F)cc3)csc2c1=O)c1ccccc1,948 s
22,CCC1Oc2ccc(S(=O)(=O)N3CCC(C(=O)Nc4ccc(F)cc4)CC3)cc2NC1=O (stereo unspecified),866 s
23,CCc1noc(NC(C)=O)c1-c1ccc(C)c(S(=O)(=O)Nc2ccc(Br)c(C)c2)c1,951 s
